Literature values as cited in patent publication US20250093362A1, “HIGH-THROUGHPUT ENGINEERING OF MOLECULAR GLUES” (Frontier Medicines Corporation, priority 2021, published 2025).

Target: CDK12-cyclin K and CUL4 adaptor protein DDB1 (Homo sapiens, UniProt Q16531+Q9NYV4)
Details: analog of CR8 lacking a single methylene group; Nat. 2020, 585 (7824), 293

Sequence of CDK12-cyclin K and CUL4 adaptor protein DDB1 (Q9NYV4 713-1052 limits assumed): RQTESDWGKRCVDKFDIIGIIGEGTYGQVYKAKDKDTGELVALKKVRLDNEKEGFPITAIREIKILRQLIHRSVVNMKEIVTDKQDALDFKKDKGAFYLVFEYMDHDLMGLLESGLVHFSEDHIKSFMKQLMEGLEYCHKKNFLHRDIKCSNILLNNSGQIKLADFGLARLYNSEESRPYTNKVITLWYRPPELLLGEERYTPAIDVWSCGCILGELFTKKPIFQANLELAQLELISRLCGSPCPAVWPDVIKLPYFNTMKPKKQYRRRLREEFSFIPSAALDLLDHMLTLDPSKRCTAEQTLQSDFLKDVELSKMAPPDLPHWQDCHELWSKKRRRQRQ
Sequence of CDK12-cyclin K and CUL4 adaptor protein DDB1 (O75909 1-267 partner limits assumed): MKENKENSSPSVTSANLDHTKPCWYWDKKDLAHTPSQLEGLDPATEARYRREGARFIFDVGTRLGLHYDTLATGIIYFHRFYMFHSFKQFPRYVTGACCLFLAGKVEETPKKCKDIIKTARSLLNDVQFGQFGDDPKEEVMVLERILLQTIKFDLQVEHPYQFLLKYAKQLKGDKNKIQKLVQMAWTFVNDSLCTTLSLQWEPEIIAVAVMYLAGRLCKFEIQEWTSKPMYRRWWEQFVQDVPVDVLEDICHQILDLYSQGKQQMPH
Sequence of CDK12-cyclin K and CUL4 adaptor protein DDB1 (Q16531 whole entry): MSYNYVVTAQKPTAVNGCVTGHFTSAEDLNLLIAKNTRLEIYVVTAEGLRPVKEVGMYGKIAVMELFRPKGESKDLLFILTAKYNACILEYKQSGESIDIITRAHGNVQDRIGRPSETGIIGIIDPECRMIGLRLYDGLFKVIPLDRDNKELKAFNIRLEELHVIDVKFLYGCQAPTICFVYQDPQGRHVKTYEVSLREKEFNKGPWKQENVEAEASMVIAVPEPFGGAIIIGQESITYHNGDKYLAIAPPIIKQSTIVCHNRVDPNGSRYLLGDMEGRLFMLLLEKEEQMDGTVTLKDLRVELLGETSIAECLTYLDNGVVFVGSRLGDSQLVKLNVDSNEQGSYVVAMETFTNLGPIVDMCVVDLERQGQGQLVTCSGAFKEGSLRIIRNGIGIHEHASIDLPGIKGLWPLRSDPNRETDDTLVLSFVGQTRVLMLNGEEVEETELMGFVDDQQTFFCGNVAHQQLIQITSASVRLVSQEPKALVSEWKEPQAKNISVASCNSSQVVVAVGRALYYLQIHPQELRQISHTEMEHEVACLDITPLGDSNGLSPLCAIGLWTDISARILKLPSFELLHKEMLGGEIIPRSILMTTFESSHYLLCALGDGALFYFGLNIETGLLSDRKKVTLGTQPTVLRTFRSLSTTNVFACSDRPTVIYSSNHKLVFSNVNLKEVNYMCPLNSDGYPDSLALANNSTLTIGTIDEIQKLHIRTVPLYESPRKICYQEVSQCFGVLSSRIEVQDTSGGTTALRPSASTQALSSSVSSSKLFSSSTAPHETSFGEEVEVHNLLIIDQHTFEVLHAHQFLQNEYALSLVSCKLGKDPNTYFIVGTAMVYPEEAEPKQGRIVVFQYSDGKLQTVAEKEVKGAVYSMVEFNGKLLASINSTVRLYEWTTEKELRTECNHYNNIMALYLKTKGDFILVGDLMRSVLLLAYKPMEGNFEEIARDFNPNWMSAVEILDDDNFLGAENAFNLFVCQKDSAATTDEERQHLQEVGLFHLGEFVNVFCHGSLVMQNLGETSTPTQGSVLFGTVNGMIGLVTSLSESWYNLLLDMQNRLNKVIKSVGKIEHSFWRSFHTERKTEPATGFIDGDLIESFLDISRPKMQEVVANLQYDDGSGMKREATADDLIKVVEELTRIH

driving formation of the ternary complex of CDK12-cyclin K and DDB1: ineffectual
Structure (SMILES): CC[C@H](CO)Nc1nc(Nc2ccc(-c3ccccn3)cc2)c2ncn(C(C)C)c2n1 [DRF053]
